{"source": "patent US10799522B2", "about": "“Compositions and methods relating to galectin detection” (Wayne State University, priority 2015, dated 2020)", "system": "orthotopic human breast carcinoma xenograft (MCF10DCIS)", "test": "dynamic PET/CT imaging, pharmacokinetics and biodistribution in tumor-bearing mice", "format": "in vivo, immunedeficient nu/nu mice", "details": "10 mg/kg i.v. 15 min prior to [^18F]FPDTG; at 60 min post injection", "experimental": "A single (unilateral) orthotopic breast carcinoma xenograft was established in immunedeficient nu/nu mice by injection of human breast ductal carcinoma in situ cells (MCF10DCIS) in Matrigel into one of the upper mammary fat pad.\nTumor-bearing mice (˜20-25 g) were anesthetized using inhalation of 2% isoflurane in oxygen, and their body temperature maintained at 38° C. by a heating pad with a feedback temperature control. […] Dynamic PET images were acquired in list-mode and reconstructed using OSEM algorithm at multiple time frames post radiotracer administration (0-2, 2-4, 4-6, 6-8, 8-10, 10-20, 20-30, 30-40, 40-50, 50-60 min). Thereafter, while still fixed to the positioning bed, the mice were moved with the bed into the gantry of INVEON SPECT/CT (Siemens), and CT images were acquired over the whole body area for attenuation correction of PET images and for production of PET/CT images. PET/CT fusion images were generated and analyzed in a similar manner as when studying rats.", "data": [{"smiles": "OC[C@H]1O[C@@H](S[C@@H]2O[C@H](CO)[C@H](O)[C@H](n3cc(-c4cccc(F)c4)nn3)[C@H]2O)[C@H](O)[C@@H](n2cc(-c3cccc(F)c3)nn2)[C@H]1O", "note": "[FPTDG, bis-{3-deoxy-3-[4-(3-fluorophenyl)-1H-1,2,3-triazol-1-yl]-β-D-galactopyranosyl)sulfane, reference compound]", "values": [{"measurement": "blockade of the radiotracer uptake and retention in DCIS lesion", "result": "> 90", "unit": "%"}]}]}
